Results: patent US12456543B2, “Enzymes” (UNIVERSITY COURT OF THE UNIVERSITY OF ST ANDREWS, priority 2018, dated 2025)

How the values were obtained:
[1] = Halogenase activity of Dsg205 and Dsg701 against 600 member compound library, LC-MSMS assay; format: biochemical; conditions: substrate of Dsg205/Dsg701, enzyme not specified
Dsg407 = assay: Substrates accepted by Dsg407; conditions: purified Dsg407, NaBr or NaI, pH 7.2
[2] = test system: tryptophan 7-halogenase RebH; conditions: natural substrate tryptophan; based on product production; cited from earlier work
[3] = test system: tryptophan 5-halogenase PyrH; conditions: natural substrate tryptophan; based on product production; cited from earlier work

SMILES	accepted as substrate by Dsg407 (Dsg407)	also measured
Nc1cccc2cccnc12 [8-quinolamine]		conversion of substrate, estimated [1]: ~75%
N[C@H](Cc1c[nH]c2ccccc12)C(=O)O [D-tryptophan]	accepts	
N[C@@H](Cc1c[nH]c2ccccc12)C(=O)O [L-tryptophan]	not	
c1cc2cc[nH]c2cn1 [Dsg 6-azaindole, 6-azaindole]	also a substrate of Dsg407	
N[C@@H](Cc1c[nH]c2ccccc12)C(=O)O [tryptophan]		Km [2]: 18.7 ± 1.3 µM; Kcat [3]: 0.0417 ± 0.0067 s⁻¹
